# Measured values from patent US9533973B2, “Allosteric modulators of 5-hydroxytryptamine 2C receptor (5-HT2CR)” (THE BOARD OF REGENTS OF THE UNIVERSITY OF TEXAS SYSTEM, priority 2011, dated 2017).
# Test: Solubility of representative compounds (Table 1)
# Assay type: physicochemical
# Details: solvents listed
row,SMILES,Solubility
1,"CCCCCCCCCCC[C@H]1CCN[C@@H](C(=O)N[C@@H](CO)[C@@H](O)c2ccc(SC)cc2)C1 [CYD-5-77-1, (2R,4S)—N-((1S,2S)-1,3-dihydroxy-1-(4-(methylthio)phenyl)propan-2-yl)-4-undecylpiperidine-2-carboxamide]","EtOH, DMSO"
2,"O=C(NCC(O)CO)c1ccccc1C1CCNCC1 (stereo not shown) [CYD-3-35, N-(2,3-Dihydroxypropyl)-2-(piperidin-4-yl)benzamide]","EtOH, DMSO, H2O"
3,"CCCCCCCCCCC[C@H]1CCN[C@@H](C(=O)N[C@@H](CO)[C@@H](O)c2ccc(S(C)(=O)=O)cc2)C1 [CYD-5-80-1, (2R,4S)—N-((1S,2S)-1,3-dihydroxy-1-(4-(methylsulfonyl)phenyl)propan-2-yl)-4-undecylpiperidine-2-carboxamide]","EtOH, DMSO"
4,"CCCCCCCCCC#Cc1ccnc(C(=O)NC(C(C)Cl)C2OC(SC)C(O)C(O)C2O)c1 (stereo not shown) [CYD-3-21, 4-Undec-1-ynyl-pyridine-2-carboxylic acid [2-chloro-1-(3,4,5-trihydroxy-6-methylsulfanyl-tetrahydro-pyran-2-yl)-propyl]-amide]","EtOH, DMSO"
5,"CS[C@H]1O[C@H]([C@H](NC(=O)C2CC(CCc3ccccc3)CCN2)[C@@H](C)O)[C@H](O)[C@H](O)[C@H]1O (stereo partly drawn) [CYD-3-61, 2,4-cis-4-Phenethyl-piperidine-2-carboxylic acid [2-hydroxy-1-(3,4,5-trihydroxy-6-methylsulfanyl-tetrahydro-pyran-2-yl)-propyl]-amide]","EtOH, DMSO"
6,c1ccc(N2CCNCC2CN2CCCCC2)cc1 (stereo not shown) [JZ-1-34],"EtOH, DMSO"
7,"O=C(NCC(O)CO)C1CNCCN1c1ccccc1 (stereo not shown) [CYD-3-49, N-(2,3-Dihydroxypropyl)-1-phenylpiperazine-2-carboxamide]","EtOH, DMSO, H2O"
8,"O=C(N[C@@H](CO)[C@@H](O)c1ccccc1)c1ccccc1C1CCNCC1 [CYD-3-50, N-((1S,2S)-1,3-dihydroxy-1-phenylpropan-2-yl)-2-(piperidin-4-yl)benzamide]","EtOH, DMSO, H2O"
9,"O=C(NC(CO)CO)c1ccccc1C1CCNCC1 [CYD-3-33, N-(1,3-Dihydroxypropan-2-yl)-2-(piperidin-4-yl)benzamide]","EtOH, DMSO H2O"
10,"O=C(N[C@@H](CO)[C@@H](O)c1ccccc1)C1C[C@@H](C2CCCCC2)CCN1 (stereo in doubt) [CYD-6-15-1, (2S,4S)-4-cyclohexyl-N-((1S,2S)-1,3-dihydroxy-1-phenylpropan-2-yl)piperidine-2-carboxamide]","EtOH, DMSO"
11,"CCCCCCCCCCC[C@@H]1CCN[C@H](C(=O)N[C@@H](CO)[C@@H](O)c2ccc(SC)cc2)C1 [CYD-5-77-2, (2S,4R)—N-((1S,2S)-1,3-dihydroxy-1-(4-(methylthio)phenyl)propan-2-yl)-4-undecylpiperidine-2-carboxamide]","EtOH, DMSO"
12,"CCCCCCCCCCC[C@H]1CCN[C@@H](C(=O)N[C@H](CO)[C@H](O)c2ccccc2)C1 [CYD-5-68-2, (2R,4S)—N-((1R,2R)-1,3-dihydroxy-1-phenylpropan-2-yl)-4-undecylpiperidine-2-carboxamide]","EtOH, DMSO"
13,"CCCCCCCCCCC[C@@H]1CCN[C@H](C(=O)N[C@@H](CO)[C@@H](O)c2ccc(S(C)(=O)=O)cc2)C1 [CYD-5-80-2, (2S,4R)—N-((1S,2S)-1,3-dihydroxy-1-(4-(methylsulfonyl)phenyl)propan-2-yl)-4-undecylpiperidine-2-carboxamide]","EtOH, DMSO"
14,"CCCCCCCCCCC[C@@H]1CCN[C@H](C(=O)N[C@H](CO)[C@H](O)c2ccccc2)C1 [CYD-5-68-1, (2S,4R)—N-((1R,2R)-1,3-dihydroxy-1-phenylpropan-2-yl)-4-undecylpiperidine-2-carboxamide]","EtOH, DMSO"
15,"CCCCCCCCCCC[C@H]1CCN[C@@H](C(=O)N[C@@H](CO)[C@@H](O)c2ccccc2)C1 [CYD-3-47-1, (2R,4S)—N-((1S,2S)-1,3-dihydroxy-1-phenylpropan-2-yl)-4-undecylpiperidine-2-carboxamide]","EtOH, DMSO"
16,c1ccc(N2CCN(CC3CNCCN3c3ccccc3)CC2)cc1 (stereo not shown) [JZ-1-35],"EtOH, DMSO"
17,"O=C(N[C@@H](CO)[C@@H](O)c1ccccc1)[C@@H]1C[C@H](C2CCCCC2)CCN1 [CYD-6-15-2, (2S,4R)-4-cyclohexyl-N-((1S,2S)-1,3-dihydroxy-1-phenylpropan-2-yl)piperidine-2-carboxamide]","EtOH, DMSO"
18,"CS[C@H]1O[C@H]([C@H](NC(=O)C2CC(CCC3CCCCC3)CCN2)[C@@H](C)O)[C@H](O)[C@H](O)[C@H]1O (stereo partly drawn) [CYD-3-62, 2,4-cis-4-(2-Cyclohexyl-ethyl)-piperidine-2-carboxylic acid [2-hydroxy-1-(3,4,5-trihydroxy-6-methylsulfanyl-tetrahydro-pyran-2-yl)-propyl]-amide]","EtOH, DMSO"
19,"CCCCCCCCCCC[C@@H]1CCN[C@H](C(=O)N[C@@H](CO)[C@@H](O)c2ccccc2)C1 [CYD-3-47-2, (2S,4R)—N-((1S,2S)-1,3-dihydroxy-1-phenylpropan-2-yl)-4-undecylpiperidine-2-carboxamide]","EtOH, DMSO"

# The next lines start with the values.
row,Solubility,SMILES
1,"EtOH, DMSO","CC1CCC(CC[C@H]2CCNC(C(=O)N[C@@H](CO)[C@@H](O)c3ccccc3)C2)CC1 (stereo in doubt) [CYD-6-10-1, (2S,4S)—N-((1S,2S)-1,3-dihydroxy-1-phenylpropan-2-yl)-4-(2-(4-methylcyclohexyl)ethyl)piperidine-2-carboxamide]"
2,"EtOH, DMSO","O=C(N[C@H](CO)[C@H](O)c1ccccc1)[C@@H]1C[C@H](CCC2CCCCC2)CCN1 [CYD-6-1-1, (2S,4R)-4-(2-cyclohexylethyl)-N-((1R,2R)-1,3-dihydroxy-1-phenylpropan-2-yl)piperidine-2-carboxamide]"
3,"EtOH, DMSO","O=C(N[C@H](CO)[C@H](O)c1ccccc1)[C@H]1C[C@@H](CCC2CCCCC2)CCN1 [CYD-6-1-2, (2R,4S)-4-(2-cyclohexylethyl)-N-((1R,2R)-1,3-dihydroxy-1-phenylpropan-2-yl)piperidine-2-carboxamide]"
4,"EtOH, DMSO","CC1CCC(CC[C@@H]2CCN[C@H](C(=O)N[C@@H](CO)C(O)c3ccccc3)C2)CC1 (stereo in doubt) [CYD-6-10-2, (2S,4R)—N-((1R,2S)-1,3-dihydroxy-1-phenylpropan-2-yl)-4-(2-(4-methylcyclohexyl)ethyl)piperidine-2-carboxamide]"
5,"EtOH, DMSO","CC(C)(C)c1ccc(CC[C@@H]2CCN[C@H](C(=O)N[C@H](CO)[C@H](O)c3ccccc3)C2)cc1 [CYD-6-2-1, (2S,4R)-4-(4-(tert-butyl)phenethyl)-N-((1R,2R)-1,3-dihydroxy-1-phenylpropan-2-yl)piperidine-2-carboxamide]"
6,"EtOH, DMSO","O=C(N[C@H](CO)[C@H](O)c1ccccc1)[C@@H]1C[C@H](CCc2ccccc2)CCN1 [CYD-5-100-1, (2S,4R)—N-((1R,2R)-1,3-dihydroxy-1-phenylpropan-2-yl)-4-phenethylpiperidine-2-carboxamide]"
7,"EtOH, DMSO","O=C(N[C@H](CO)[C@H](O)c1ccccc1)[C@H]1C[C@@H](CCc2ccccc2)CCN1 [CYD-5-100-2, (2R,4S)—N-((1R,2R)-1,3-dihydroxy-1-phenylpropan-2-yl)-4-phenethylpiperidine-2-carboxamide]"
8,"EtOH, DMSO","CC(C)(C)c1ccc(CC[C@H]2CCN[C@@H](C(=O)N[C@H](CO)[C@H](O)c3ccccc3)C2)cc1 [CYD-6-2-2, (2R,4S)-4-(4-(tert-butyl)phenethyl)-N-((1R,2R)-1,3-dihydroxy-1-phenylpropan-2-yl)piperidine-2-carboxamide]"
9,"EtOH, DMSO","Cc1ccc(CC[C@H]2CCNC(C(=O)N[C@@H](CO)[C@@H](O)c3ccccc3)C2)cc1 (stereo in doubt) [CYD-6-9-1, (2S,4S)—N-((1S,2S)-1,3-dihydroxy-1-phenylpropan-2-yl)-4-(4-methylphenethyl)piperidine-2-carboxamide]"
10,"EtOH, DMSO","O=C(N[C@@H](CO)[C@@H](O)c1ccccc1)C1C[C@@H](c2ccccc2)CCN1 (stereo in doubt) [CYD-6-16-1, (2S,4S)—N-((1S,2S)-1,3-dihydroxy-1-phenylpropan-2-yl)-4-phenylpiperidine-2-carboxamide]"
11,"EtOH, DMSO","Cc1ccc(CC[C@@H]2CCN[C@H](C(=O)N[C@@H](CO)[C@@H](O)c3ccccc3)C2)cc1 [CYD-6-9-2, (2S,4R)—N-((1S,2S)-1,3-dihydroxy-1-phenylpropan-2-yl)-4-(4-methylphenethyl) piperidine-2-carboxamide]"
12,"EtOH, DMSO","O=C(N[C@@H](CO)[C@@H](O)c1ccccc1)[C@@H]1C[C@H](c2ccccc2)CCN1 [CYD-6-16-2, (2S,4R)—N-((1S,2S)-1,3-dihydroxy-1-phenylpropan-2-yl)-4-phenylpiperidine-2-carboxamide]"
